Where a name gives a salt, the structure may show the parent alone.
How the values were obtained:
Assay type in all cases: in vivo
[1] = Acute toxicity test; conditions: mouse, in vivo, po, mice, observation for 7 days, Litchfield-Wilcoxon, 95% confidence limit in brackets, read-out: LD₅₀ values (50% of lethal dose)
Protocol: (§1) Male ddy mice of 20-30 g were used as test animals in groups of 5-10. The test compounds were dissolved or suspended in 0.5 % Tween 80 aqueous solution, and orally administered to the mice. Observation was made for 7 days after administration. The LD₅₀ values (50% of lethal dose) (95% confidence limit) were determined by the Litchfield-Wilconxon method, and are shown in Table 4.

[2] = system: Male Slc-ddy mice; assay: Anti-nicotinic effect (survival after intravenous nicotine bitartrate); conditions: for anti-nicotinic effect compared with eperisone hydrochloride / Anti-nicotinic effect Effect: 100 mg/10 ml/kg oral; for Anti-nicotinic effect Effect: 30 min, compared with eperisone hydrochloride; for ED50: Mus musculus, 0.5 h, oral, nicotine bitartrate 3 mg/10 ml/kg i.v. after 30 min, Litchfield-Wilcoxon, 95 % confidence limit in brackets, read-out: ED₅₀ values for the anti-nicotinic effect
Protocol: Experimental Method of Male Slc-ddy mice/30 - 35 g (6 weeks old) were used as test animals in groups of 7 - 10. The test compounds (100 mg/10 ml/kg) were orally administered to the mice, and after 30 min, nicotine bitartrate (3 mg/10 ml/kg) was administered intravenously, and the number of animals killed due to tonic convulsion was counted. The surviving animals were judged as having an anti-nicotinic effect, and with the number thereof as index the comparison concerning the anti-nicotinic effect was made with the reference compound (eperisone hydrochloride).

[3] = system: Male Slc-ddy mice; assay: Inhibitory effect on the motor coordination (rotating rod test); conditions: for Inhibitory effect on motor coordination Effect: 300 - 600 mg/10 ml/kg oral, 30 min, compared with eperisone hydrochloride; for ED50: Mus musculus, 0.5 h, read-out: ED₅₀ values for the inhibitory effect on the motor coordination
Protocol: Male Slc-ddy mice of 20 - 25 g (5 weeks old) were used in groups of 7 - 10. The test compounds were used dissolved or suspended in 0.5 % CMC or 0.5 % Tween 80 solution. Each test compound (300 - 600 mg/10 ml/kg) was orally administered to the mice, and after 30 min the mice were put on a 3-cm diameter rod rotating at a speed of 10 min⁻¹ in a direction opposite to the rotation direction, and the time of staying on it was measured to a maximum of 180 s. Those falling off of the rotating rod within 60 s were judged as having an inhibitory effect on the motor coordination and, with the number of cases as index, comparison was made with the reference compound (eperisone hydrochloride).
The mice were trained in advance to be able to stay on the rotating rod for more than 300 s, and those capable of staying on it for more than 250 s immediately before testing were used.

[4] = system: Male Slc-ddy mice; assay: Anti-strychnine effect (time from tonic convulsions to death after subcutaneous strychnine nitrate); conditions: for ED50: Mus musculus, po, 0.5 h, read-out: ED₅₀ values for the anti-strychnine effect; for anti-strychnine effect compared with eperisone hydrochloride / Anti-strychnine effect Effect: 100 mg/10 ml/kg oral; for Anti-strychnine effect Effect: 30 min, compared with eperisone hydrochloride
Protocol: Strychnine is known to enhance reflex stimulation, among others, of spinal cord to induce convulsions. If this effect of strychnine can be suppressed by administration of any of the above-mentioned compounds, this compound is expected to have a central muscle relaxation effect.
Male Slc-ddy mice of 25 - 30 g (5 weeks old) were used in groups of 7 - 10.
The test compounds (100 mg/10 ml/kg) were orally administered to the mice, and after 30 min, 1.5 mg/10 ml/kg of strychnine nitrate was administered subcutaneously, and the time was measured from the occurence of tonic convulsions to the death of the animals. Cases in which this time was extended to 6 min or more were judged as corresponding to an anti-strychnine effect, and with the number of such cases as index, comparison was made with the reference compound (eperisone hydrochloride). […] The ED₅₀ values (95% confidence limit) for the anti-strychnine effect were determined by the Litchfield-Wilcoxon method and are shown in Table 3.

[5] = system: Male ddy mice; assay: Acute toxicity test; conditions: oral
Protocol: as §1

[6] = oral, rotating rod 30 min after administration, falling off within 60 s counted as positive, 95% confidence limit in brackets

Compound | LD50 at 168 h [1] [mg/kg] | anti-nicotinic effect compared with eperisone hydrochloride [2] | Anti-nicotinic effect Effect [2] | ED50 [2] [mg/kg] | Inhibitory effect on motor coordination Effect [3] | ED50 [3, 6] [mg/kg] | inhibitory effect on the motor coordination compared with eperisone hydrochloride ([3]; oral) | ED50 [4] [mg/kg] | anti-strychnine effect compared with eperisone hydrochloride ([4]; mice) | Anti-strychnine effect Effect ([4]; mice) | minimum lethal dose relative to the minimum amount necessary for developing a pharmacological effect (safety margin) [5] | ED₅₀ values for the inhibitory effect on the motor coordination [3, 6] | ED₅₀ values for the anti-strychnine effect ([4]; mice, oral, strychnine nitrate 1.5 mg/10 ml/kg s.c. after 30 min, Litchfield-Wilcoxon, 95% confidence limit in brackets) | LD₅₀ values (50% of lethal dose) ([5]; observation for 7 days, Litchfield-Wilcoxon, 95% confidence limit in brackets, 10080 min)
CCc1ccc(C(=O)C(C)Cn2ccnc2)cc1 (stereo not drawn) [Compound 2, 1-(4-ethylphenyl)-3-(1H-imidazol-1-yl)-2-methylpropan-1-one] | 218 | stronger anti-nicotinic effect than eperisone hydrochloride | ◎ | 26 | 0 | 200 | stronger inhibitory effect on the motor coordination than eperisone hydrochloride | 135 | stronger anti-strychnine effect than eperisone hydrochloride | ◎ |  |  |  | 
Cc1ccc(C(=O)C(C)Cn2ccnc2)cc1C (stereo not drawn) [Compound 14, 3-(1H-imidazol-1-yl)-2-methyl-1-(3,4-dimethylphenyl)-propan-1-one] | 209 | stronger anti-nicotinic effect than eperisone hydrochloride | ◎ | 32 | 0 | 100 | stronger inhibitory effect on the motor coordination than eperisone hydrochloride | 33 | stronger anti-strychnine effect than eperisone hydrochloride | ◎ |  |  |  | 
CCc1ccc(C2(C(C)Cn3ccnc3)OCCO2)cc1 (stereo not drawn) [Compound 23] | 415 | stronger anti-nicotinic effect than eperisone hydrochloride | ◎ | 46 | ◎ | 210 | stronger inhibitory effect on the motor coordination than eperisone hydrochloride | 155 | stronger anti-strychnine effect than eperisone hydrochloride | ○ |  |  |  | 
CCc1ccc(C(=O)C(C)CN2CCCCC2)cc1 (stereo not drawn) [Eperisone hydrochloride, reference compound] | 303 |  |  | 140 |  |  |  |  |  |  | the minimum lethal dose is close to the minimum amount necessary for developing a pharmacological effect | positive cases not in excess of 50% | No effect detected | 
CCc1ccc(C(=O)C(C)Cn2ccnc2)cc1 (stereo not drawn) [Hydrochloride of compound 2] |  |  |  |  |  |  |  |  |  |  |  |  |  | 225 mg/kg (182-278)
